Data on 43 molecules can be found in patent US20070010671A1, “Novel quinazoline derivatives and methods of treatment related to the use thereof” (priority 2003, published 2007).

The target of this assay is MCH receptor (Homo sapiens, UniProt Q99705). The assay is described as follows: High throughput functional screening FLIPR/FDSS6000: inhibition of MCH-evoked intracellular Ca2+ changes. Format: cell-based. Particulars: class by percent of control at 10^-7 M or by IC50; read-out: class. A digest of the protocol:
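Fluo4 fluorescence (Ex 488 nm, Em 530 nm) tracked MCH-evoked [Ca2+]i transients over 290 s by FLIPR or FDSS. Cells carried a constitutively active, non-endogenous receptor version. Compounds were added 3 min before a 50 nM MCH challenge.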

pIC50: −log10 of the molar value. Bounds are passed on as bounds.

For the molecule `Cc1ccccc1CNC(=O)N[C@H]1CC[C@@H](Nc2nc(N(C)C)c3ccccc3n2)CC1` [compound 111, N-(cis-4-{[4-(dimethylamino)quinazolin-2-yl]amino}cyclohexyl)-N′-(2-methylbenzyl)urea], the pIC50 was > 7.30.
Under `CN(C)c1nc(N[C@H]2CC[C@@H](NC(=O)Nc3ccc4ccccc4c3)CC2)nc2ccccc12` [compound 112] stands < 6.70; under `CN(C)c1nc(N[C@H]2CC[C@@H](NC(=O)Nc3ccccc3[N+](=O)[O-])CC2)nc2ccccc12` [compound 113, N-(cis-4-{[4-(dimethylamino)quinazolin-2-yl]amino}cyclohexyl)-N′-(2-nitrophenyl)urea], > 7.30.
On to `CCCc1ccccc1NC(=O)N[C@H]1CC[C@@H](Nc2nc(N(C)C)c3ccccc3n2)CC1` [compound 114, N-(cis-4-{[4-(dimethylamino)quinazolin-2-yl]amino}cyclohexyl)-N′-(2-propylphenyl)urea], for which the pIC50 was > 7.30.
To `CN(C)c1nc(N[C@H]2CC[C@@H](NC(=O)Nc3ccccc3Oc3ccccc3)CC2)nc2ccccc12` [compound 115, N-(cis-4-{[4-(dimethylamino)quinazolin-2-yl]amino}cyclohexyl)-N′-(2-phenoxyphenyl)urea] belongs 6.70 to 7.30; to `Cc1cccc(C(C)(C)C)c1NC(=O)N[C@H]1CC[C@@H](Nc2nc(N(C)C)c3ccccc3n2)CC1` [compound 116, N-(2-tert-butyl-6-methylphenyl)-N′-(cis-4-{[4-(dimethylamino)quinazolin-2-yl]amino}cyclohexyl)urea], > 7.30; to `CN(C)c1nc(N[C@H]2CC[C@@H](NC(=O)Nc3ccccc3C(C)(C)C)CC2)nc2ccccc12` [compound 117, N-(2-tert-butylphenyl)-N′-(cis-4-{[4-(dimethylamino)quinazolin-2-yl]amino}cyclohexyl)urea], > 7.30.
Under `CSc1cccc(NC(=O)N[C@H]2CC[C@@H](Nc3nc(N(C)C)c4ccccc4n3)CC2)c1` [compound 118] stands 6.70 to 7.30; under `CN(C)c1nc(N[C@H]2CC[C@@H](NC(=O)Nc3cccc(SC(F)(F)F)c3)CC2)nc2ccccc12` [compound 119], < 6.70; under `CN(C)c1nc(N[C@H]2CC[C@@H](NC(=O)Nc3ccc4c(c3)OCO4)CC2)nc2ccccc12` [compound 120, N-1,3-benzodioxol-5-yl-N′-(cis-4-{[4-(dimethylamino)quinazolin-2-yl]amino}cyclohexyl)urea], > 7.30.
Under `COc1cc(NC(=O)N[C@H]2CC[C@@H](Nc3nc(N(C)C)c4ccccc4n3)CC2)cc(OC)c1OC` [compound 121, N-(cis-4-{[4-(dimethylamino)quinazolin-2-yl]amino}cyclohexyl)-N′-(3,4,5-trimethoxyphenyl)urea] stands > 7.30; under `CN(C)c1nc(N[C@H]2CC[C@@H](NC(=O)NCc3ccc(Cl)c(Cl)c3)CC2)nc2ccccc12` [compound 122, N-(3,4-dichlorobenzyl)-N′-(cis-4-{[4-(dimethylamino)quinazolin-2-yl]amino}cyclohexyl)urea], 6.70 to 7.30; under `CN(C)c1nc(N[C@H]2CC[C@@H](NC(=O)Nc3ccc(F)c(F)c3)CC2)nc2ccccc12` [compound 123, N-(3,4-difluorophenyl)-N′-(cis-4-{[4-(dimethylamino)quinazolin-2-yl]amino}cyclohexyl)urea], 6.70 to 7.30.
As for `COc1ccc(NC(=O)N[C@H]2CC[C@@H](Nc3nc(N(C)C)c4ccccc4n3)CC2)cc1OC` [compound 124, N-(3,4-dimethoxyphenyl)-N′-(cis-4-{[4-(dimethylamino)quinazolin-2-yl]amino}cyclohexyl)urea], the pIC50 is > 7.30.
Under `CN(C)c1nc(N[C@H]2CC[C@@H](NC(=O)Nc3cc(F)cc(F)c3)CC2)nc2ccccc12` [compound 125, N-(3,5-difluorophenyl)-N′-(cis-4-{[4-(dimethylamino)quinazolin-2-yl]amino}cyclohexyl)urea] stands 6.70 to 7.30; under `COc1cc(NC(=O)N[C@H]2CC[C@@H](Nc3nc(N(C)C)c4ccccc4n3)CC2)cc(OC)c1` [compound 126], 6.70 to 7.30.
Under `Cc1cc(C)cc(NC(=O)N[C@H]2CC[C@@H](Nc3nc(N(C)C)c4ccccc4n3)CC2)c1` [compound 127, N-(cis-4-{[4-(dimethylamino)quinazolin-2-yl]amino}cyclohexyl)-N′-(3,5-dimethylphenyl)urea] stands 6.70 to 7.30; under `COC(=O)c1cccc(NC(=O)N[C@H]2CC[C@@H](Nc3nc(N(C)C)c4ccccc4n3)CC2)c1` [compound 128, methyl 3-({[(cis-4-{[4-(dimethylamino)quinazolin-2-yl]amino}cyclohexyl)amino]carbonyl}amino)benzoate], 6.70 to 7.30.
Turning to `Cc1c(Cl)cccc1NC(=O)N[C@H]1CC[C@@H](Nc2nc(N(C)C)c3ccccc3n2)CC1` [compound 129], the pIC50 was > 7.30.
Under `CN(C)c1nc(N[C@H]2CC[C@@H](NC(=O)Nc3ccc(F)c(Cl)c3)CC2)nc2ccccc12` [compound 130] stands 6.70 to 7.30; under `COc1ccc(NC(=O)N[C@H]2CC[C@@H](Nc3nc(N(C)C)c4ccccc4n3)CC2)cc1Cl` [compound 131, N-(3-chloro-4-methoxyphenyl)-N′-(cis-4-{[4-(dimethylamino)quinazolin-2-yl]amino}cyclohexyl)urea], > 7.30.
Under `CCc1cccc(NC(=O)N[C@H]2CC[C@@H](Nc3nc(N(C)C)c4ccccc4n3)CC2)c1` [compound 132, N-(cis-4-{[4-(dimethylamino)quinazolin-2-yl]amino}cyclohexyl)-N′-(3-ethylphenyl)urea] stands 6.70 to 7.30; under `CN(C)c1nc(N[C@H]2CC[C@@H](NC(=O)Nc3cc(F)cc(C(F)(F)F)c3)CC2)nc2ccccc12` [compound 133], < 6.70; under `CN(C)c1nc(N[C@H]2CC[C@@H](NC(=O)NCc3cccc(F)c3)CC2)nc2ccccc12` [compound 134, N-(cis-4-{[4-(dimethylamino)quinazolin-2-yl]amino}cyclohexyl)-N′-(3-fluorobenzyl)urea], 6.70 to 7.30.
Turning to `CN(C)c1nc(N[C@H]2CC[C@@H](NC(=O)Nc3cccc([N+](=O)[O-])c3)CC2)nc2ccccc12` [compound 135], the pIC50 was < 6.70.
To `CN(C)c1nc(N[C@H]2CC[C@@H](NC(=O)Nc3ccc(C(F)(F)F)cc3)CC2)nc2ccccc12` [compound 136] belongs < 6.70.
For `CN(C)c1nc(N[C@H]2CC[C@@H](NC(=O)Nc3ccc(SC(F)(F)F)cc3)CC2)nc2ccccc12` [compound 137], the pIC50 was < 6.70.
Turning to `Cc1cc(NC(=O)N[C@H]2CC[C@@H](Nc3nc(N(C)C)c4ccccc4n3)CC2)c([N+](=O)[O-])cc1C` [compound 138], the pIC50 was < 6.70.
Under `CN(C)c1nc(N[C@H]2CC[C@@H](NC(=O)Nc3ccc(OCc4ccccc4)cc3)CC2)nc2ccccc12` [compound 139] stands < 6.70; under `CN(C)c1nc(N[C@H]2CC[C@@H](NC(=O)Nc3ccc(Cc4ccccc4)cc3)CC2)nc2ccccc12` [compound 140], < 6.70; under `CN(C)c1nc(N[C@H]2CC[C@@H](NC(=O)Nc3ccc(Br)cc3C(F)(F)F)CC2)nc2ccccc12` [compound 141, N-[4-bromo-2-(trifluoromethyl)pheny]-N′-(cis-4-{[4-(dimethylamino)quinazolin-2-yl]amino}cyclohexyl)urea], > 7.30.
To `CN(C)c1nc(N[C@H]2CC[C@@H](NC(=O)Nc3c(F)cc(Br)cc3F)CC2)nc2ccccc12` [compound 142, N-(4-bromo-2,6-difluorophenyl)-N′-(cis-4-{[4-(dimethylamino)quinazolin-2-yl]amino}cyclohexyl)urea] belongs > 7.30; to `CN(C)c1nc(N[C@H]2CC[C@@H](NC(=O)Nc3ccc(Br)cc3Cl)CC2)nc2ccccc12` [compound 143], < 6.70; to `CN(C)c1nc(N[C@H]2CC[C@@H](NC(=O)NCc3ccc(Br)cc3)CC2)nc2ccccc12` [compound 144, N-(4-bromobenzyl)-N′-(cis-4-{[4-(dimethylamino)quinazolin-2-yl]amino}cyclohexyl)urea], > 7.30.
To `CN(C)c1nc(N[C@H]2CC[C@@H](NC(=O)Nc3ccc(Cl)cc3C(F)(F)F)CC2)nc2ccccc12` [compound 145, N-[4-chloro-2-(trifluoromethyl)phenyl]-N′-(cis-4-{[4-(dimethylamino)quinazolin-2-yl]amino}cyclohexyl)urea] belongs > 7.30.
As to `Cc1cc(Cl)ccc1NC(=O)N[C@H]1CC[C@@H](Nc2nc(N(C)C)c3ccccc3n2)CC1` [compound 146], the pIC50 was > 7.30.
Under `CN(C)c1nc(N[C@H]2CC[C@@H](NC(=O)Nc3ccc(Cl)cc3[N+](=O)[O-])CC2)nc2ccccc12` [compound 147] stands < 6.70; under `CN(C)c1nc(N[C@H]2CC[C@@H](NC(=O)Nc3ccc(Cl)c(C(F)(F)F)c3)CC2)nc2ccccc12` [compound 148], < 6.70; under `CN(C)c1nc(N[C@H]2CC[C@@H](NC(=O)Nc3ccc(C#N)cc3)CC2)nc2ccccc12` [compound 149, N-(4-cyanophenyl)-N′-(cis-4-{[4-(dimethylamino)quinazolin-2-yl]amino}cyclohexyl)urea], > 7.30.
Under `CCOc1ccc(NC(=O)N[C@H]2CC[C@@H](Nc3nc(N(C)C)c4ccccc4n3)CC2)cc1` [compound 150, N-(cis-4-{[4-(dimethylamino)quinazolin-2-yl]amino}cyclohexyl)-N′-(4-ethoxyphenyl)urea] stands 6.70 to 7.30.
To `CN(C)c1nc(N[C@H]2CC[C@@H](NC(=O)Nc3ccccc3OC(F)(F)F)CC2)nc2ccccc12` [compound 152] belongs < 6.70; to `CC(=O)c1cccc(NC(=S)N[C@H]2CC[C@@H](Nc3nc(N(C)C)c4ccccc4n3)CC2)c1` [compound 153], < 6.70; to `CC(=O)c1ccc(NC(=S)N[C@H]2CC[C@@H](Nc3nc(N(C)C)c4ccccc4n3)CC2)cc1` [compound 154], < 6.70.
